The structures appear in SMILES notation. Like-named read-outs stand apart in the source and are kept apart here.

For experiment [1], the system named is H2228. The experiment is described as follows: CCK-8 proliferation, NCI-H2228 (H2228). Format: cell-based. The settings on record: Homo sapiens, NCI-H2228; Table B6, compounds designed based on the ALK inhibitors; H2228 cells; read-out: Inhibitory activity (IC50, nM) on tumor cell proliferation, H2228. The procedure, abridged:
(§1)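 CCK-8 viability readout; IC50 from growth-inhibition curve fitting. Cells plated, dosed 24h later with a 10-point series, top 10µM, 5-fold steps. Culture at 37°C, 5% CO2.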

Experiment [2] concerns H1975. The experiment is described as follows: CCK-8 proliferation, NCI-H1975 (H1975). The experiment is classed as cell-based, Human. Particulars: Homo sapiens, NCI-H1975; Table B6, compounds designed based on the ALK inhibitors; H1975 cells; read-out: Inhibitory activity (IC50, nM) on tumor cell proliferation, H1975. The procedure, abridged:
as §1

The subject of experiment [3] is MCF7. The experiment is described as follows: CCK-8 proliferation, MCF7 (MCF-7). The experiment is classed as cell-based. The settings on record: Homo sapiens, MCF7; Table B6, compounds designed based on the ALK inhibitors; MCF-7 cells; read-out: Inhibitory activity (IC50, nM) on tumor cell proliferation, MCF-7. The procedure, abridged:
as §1

Experiment [4] relates to SR. The experiment is described as follows: CCK-8 proliferation, SR. Format: cell-based, Human. Particulars: Homo sapiens. The procedure, abridged: as §1
In experiment [5] the test system is MM.1S. The experiment is described as follows: CCK-8 proliferation, MM.1S. The settings on record: Homo sapiens, MM1.S; Table B6, compounds designed based on the ALK inhibitors; MM.1S cells; read-out: Inhibitory activity (IC50, nM) on tumor cell proliferation, MM.1S. Format: cell-based. The procedure, abridged:
as §1

In experiment [6] the test system is MDA-MB-231. Description: CCK-8 proliferation, MDA-MB-231. Format: cell-based. The settings on record: Homo sapiens; Table B6, compounds designed based on the ALK inhibitors; MDA-MB-231 cells; read-out: Inhibitory activity (IC50, nM) on tumor cell proliferation, MDA-MB-231. On the procedure: (§2) The tumor cells used herein were cultured in a cell culture medium listed in table A1 at 37°C in an incubator with 5% CO2. Prior to experimentation, all cell lines used were correctly identified by STR profiling, and tested negative for mycoplasma contamination using a mycoplasma detection kit through routine screenings. Table A1. Tumor cells and cell culture medium used in the present disclosure
(§3) IC50 values of the compounds of the present disclosure (including the compounds in Table 1, and compounds of examples) were measured using the Meilun Cell Counting Kit-8 kit from Dalian Meilun Biotech Co., Ltd. Assay details are as follows: tumor cells were seeded in a 96-well plate at a density listed in Table A2. After 24h, 100 µL of the inoculated cells were treated with 0.5µL of the compounds of the present disclosure (including the compounds in Tables 1 and 2, and compounds of examples) at 10 different successively decreasing concentrations (starting at the highest concentration of 10µM; 5-fold serial dilutions). After the cells were treated with the compounds of the present disclosure for a period of time, the cell viability detection reagent was added to the culture medium for cell viability assessment according to the instructions provided with the CCK-8 kit. […] The growth inhibition of the compounds of the present disclosure on cells was plotted by Prism Graphpad software, and the IC50 values of the compounds of the present disclosure were calculated therefrom. […] Seeding protocol and treatment time for tumor cells

The subject of experiment [7] is SW620. Description: CCK-8 proliferation, SW620. The experiment is classed as cell-based. The settings on record: Homo sapiens, SW-620; CCK-8; 96 hours; read-out: Inhibitory activity (IC50) on tumor cell proliferation, SW620. On the procedure:
as §2, §3

In experiment [8] the test system is MV-4-11. The experiment is described as follows: CCK-8 proliferation, MV-4-11. Format: cell-based, Human. The settings on record: Homo sapiens, MV4-11; CCK-8; 72 or 96 hours; read-out: Inhibitory activity (IC50) on tumor cell proliferation, MV-4-11. A digest of the protocol:
as §1

The subject of experiment [9] is CCRF-CEM. Description: CCK-8 proliferation, CCRF-CEM. The experiment is classed as cell-based, Human. Particulars: Homo sapiens, CCRF-CEM; CCK-8; 96 hours; read-out: Inhibitory activity (IC50) on tumor cell proliferation, CCRF-CEM. The procedure, abridged: as §1
In experiment [10] the target is T1, human Cereblon WT GST-tagged protein (Homo sapiens, UniProt Q96SW2).
T1 construct: purchased CISBIO 64BDCRBNPEH
T1 sequence (Q96SW2 whole entry): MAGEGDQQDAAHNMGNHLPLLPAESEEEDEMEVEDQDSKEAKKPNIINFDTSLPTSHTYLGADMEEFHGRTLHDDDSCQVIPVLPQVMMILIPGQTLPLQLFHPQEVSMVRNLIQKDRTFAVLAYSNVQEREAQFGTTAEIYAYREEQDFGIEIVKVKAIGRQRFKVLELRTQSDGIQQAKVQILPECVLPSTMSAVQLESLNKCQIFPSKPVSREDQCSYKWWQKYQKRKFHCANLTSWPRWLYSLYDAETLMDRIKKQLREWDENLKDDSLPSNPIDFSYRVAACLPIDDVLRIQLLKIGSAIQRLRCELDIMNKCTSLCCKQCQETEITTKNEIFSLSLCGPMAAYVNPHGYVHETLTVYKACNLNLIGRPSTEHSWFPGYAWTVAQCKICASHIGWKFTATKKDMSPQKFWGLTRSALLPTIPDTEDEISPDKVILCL
The experiment is described as follows: CRBN binding, HTRF (CEREBLON BINDING kit). The settings on record: Table II-2, CRBN binding screening, HTRF. The procedure, abridged:
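Competitive HTRF: GST-tagged human WT Cereblon mixed with compound, Thalidomide-Re tracer and GST Eu antibody, incubated 3 h at room temperature. Signals read at 620 and 665 nm.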
On the technique in general: Time-resolved FRET reads energy transfer from a long-lived donor to a nearby acceptor.

Experiment [11] addresses T2, FAK (Homo sapiens, UniProt Q05397).
T2 construct: evaluate the effects of the compounds of the present disclosure on the expression of target proteins in cells; endogenous in cells
The experiment is described as follows: Western blot degradation of FAK. Format: cell-based. Particulars: Table D7. The procedure, abridged:
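Degradation is assessed by immunoblotting lysates of treated cells. Target bands are quantified by grayscale and normalised to an internal control, so degradation rate equals 100% minus % remaining.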
For orientation: Immunoblotting shows a protein as a band on a membrane.

[12] abbreviates: Table B6, compounds designed based on the ALK inhibitors, SR cells, read-out: Inhibitory activity (IC50, nM) on tumor cell proliferation, SR.

T2 sequence (Q05397 whole entry, species assumed): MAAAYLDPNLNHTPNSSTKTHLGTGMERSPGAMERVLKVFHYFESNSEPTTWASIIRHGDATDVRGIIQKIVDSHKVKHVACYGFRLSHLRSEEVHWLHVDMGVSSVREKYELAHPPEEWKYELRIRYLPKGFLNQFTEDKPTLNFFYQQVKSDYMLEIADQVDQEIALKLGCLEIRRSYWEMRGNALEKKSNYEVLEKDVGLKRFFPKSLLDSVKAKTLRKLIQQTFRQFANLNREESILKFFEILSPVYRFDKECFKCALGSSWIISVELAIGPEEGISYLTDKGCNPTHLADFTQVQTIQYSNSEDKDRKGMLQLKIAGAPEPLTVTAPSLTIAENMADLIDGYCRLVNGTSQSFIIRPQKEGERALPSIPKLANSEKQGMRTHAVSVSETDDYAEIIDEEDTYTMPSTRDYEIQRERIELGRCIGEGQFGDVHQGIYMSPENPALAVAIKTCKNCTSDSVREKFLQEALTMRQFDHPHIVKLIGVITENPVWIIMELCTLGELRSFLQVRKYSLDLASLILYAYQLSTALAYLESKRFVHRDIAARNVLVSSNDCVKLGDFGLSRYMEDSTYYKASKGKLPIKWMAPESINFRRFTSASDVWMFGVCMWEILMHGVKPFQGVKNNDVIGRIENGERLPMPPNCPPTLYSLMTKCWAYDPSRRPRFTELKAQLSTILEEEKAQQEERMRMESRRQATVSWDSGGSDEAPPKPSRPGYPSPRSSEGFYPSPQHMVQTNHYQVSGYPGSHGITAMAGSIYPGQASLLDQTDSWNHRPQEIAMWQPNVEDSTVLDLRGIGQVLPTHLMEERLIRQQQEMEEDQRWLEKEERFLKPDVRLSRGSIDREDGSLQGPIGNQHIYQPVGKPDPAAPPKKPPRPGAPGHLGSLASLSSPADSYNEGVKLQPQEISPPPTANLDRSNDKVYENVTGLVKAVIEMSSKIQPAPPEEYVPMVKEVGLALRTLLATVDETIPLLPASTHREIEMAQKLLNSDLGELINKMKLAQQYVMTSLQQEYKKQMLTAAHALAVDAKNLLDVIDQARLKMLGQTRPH

In the case of `CCc1cc2c(cc1N1CCC(N3CCOCC3)CC1)C(C)(C)c1[nH]c3cc(C#N)ccc3c1C2=O` [alectinib, reference compound], the IC50 in experiment [1] lay within 5000 to 10000 nM; in experiment [2], 1000 to 5000 nM; in experiment [3], 5000 to 10000 nM; in experiment [4] (setting [12]), 10 to 50 nM; in experiment [5] it was 1000 to 5000 nM; in [6] it was 1000 to 5000 nM.
Regarding `COc1cc(N2CCC(N3CCN(C)CC3)CC2)ccc1Nc1ncc(Cl)c(Nc2ccccc2P(C)(C)=O)n1` [brigatinib, reference compound], the IC50 in [1] was more than 10000 nM; in experiment [2], more than 10000 nM; in experiment [3], 1000 to 5000 nM; in experiment [4] (setting [12]) it was 100 to 500 nM; in experiment [5], 1000 to 5000 nM; in experiment [6], 1000 to 5000 nM.
For `CCc1cc2c(cc1N1CCC(N3CCN(Cc4cncc(N5CCC(=O)NC5=O)c4)CC3)CC1)C(C)(C)c1[nH]c3cc(C#N)ccc3c1C2=O` [GT-07702, 8-(4-(4-((5-(2,4-dioxotetrahydropyrimidin-1(2H)-yl)pyridin-3-yl)methyl)piperazin-1-yl)piperidin-1-yl)-9-ethyl-6,6-dimethyl-11-oxo-6,11-dihydro-5H-benzo[b]carbazole-3-carbonitrile], the IC50 was 100 to 500 nM in experiment [1]; 500 to 1000 nM in experiment [2]; 500 to 1000 nM in experiment [3]; 1 to 10 nM in experiment [4] (setting [12]); 500 to 1000 nM in [5]; 500 to 1000 nM in experiment [6].
Regarding `CCc1cc2c(cc1N1CCC(N3CCN(Cc4cc(C5CCC(=O)NC5=O)cnc4F)CC3)CC1)C(C)(C)c1[nH]c3cc(C#N)ccc3c1C2=O` (centres unmarked) [GT-07703, 8-(4-(4-((5-(2,6-dioxopiperidin-3-yl)-2-fluoropyridin-3-yl)methyl)piperazin-1-yl)piperidin-1-yl)-9-ethyl-6,6-dimethyl-11-oxo-6,11-dihydro-5H-benzo[b]carbazole-3-carbonitrile], the IC50 in experiment [1] lay within 50 to 100 nM; in [3], 500 to 1000 nM; in [4] (setting [12]) it was 1 to 10 nM; in [6], 500 to 1000 nM.
For `COc1cc(N2CCN(Cc3ccc(C4CCC(=O)NC4=O)cn3)CC2)ccc1Nc1ncc(Cl)c(Nc2ccccc2P(C)(C)=O)n1` (centres unmarked) [GT-07713, 3-(6-((4-(4-((5-chloro-4-((2-(dimethylphosphoryl)phenyl)amino)pyrimidin-2-yl)amino)-3-methoxyphenyl)piperazin-1-yl)methyl)pyridin-3-yl)piperidine-2,6-dione], the IC50 fell in the range of 100 to 500 nM in [1], 10 to 50 nM in experiment [4] (setting [12]) and 500 to 1000 nM in experiment [6].
In the case of `COc1cc(N2CCC(N3CCN(Cc4ccc(C5CCC(=O)NC5=O)cc4)CC3)CC2)ccc1Nc1ncc(Cl)c(Nc2ccccc2P(C)(C)=O)n1` (centres unmarked) [GT-07602, 3-(4-((4-(1-(4-((5-chloro-4-((2-(dimethylphosphoryl)phenyl)amino)pyrimidin-2-yl)amino)-3-methoxyphenyl)piperidin-4-yl)piperazin-1-yl)methyl)phenyl)piperidine-2,6-dione], the IC50 fell in the range of 10 to 50 nM in [1]; 100 to 500 nM in [2]; 100 to 500 nM in experiment [3]; 1 to 10 nM in experiment [4] (setting [12]); 100 to 500 nM in experiment [5]; 100 to 500 nM in experiment [6].
On to `CCc1cc2c(cc1N1CCC(N3CCN(Cc4ccc(N5CCC(=O)NC5=O)c(F)c4)CC3)CC1)C(C)(C)c1[nH]c3cc(C#N)ccc3c1C2=O` [GT-07308, 8-(4-(4-(4-(2,4-dioxotetrahydropyrimidin-1(2H)-yl)-3-fluorobenzyl)piperazin-1-yl)piperidin-1-yl)-9-ethyl-6,6-dimethyl-11-oxo-6,11-dihydro-5H-benzo[b]carbazole-3-carbonitrile], for which the IC50 in experiment [1] was 10 to 50 nM; in experiment [3], 500 to 1000 nM; in experiment [4] (setting [12]), 10 to 50 nM; in experiment [6], 500 to 1000 nM.
As to `COc1cc(N2CCC(N3CCN(Cc4cccc(N5CCC(=O)NC5=O)c4)CC3)CC2)ccc1Nc1ncc(Cl)c(Nc2ccccc2P(C)(C)=O)n1` [GT-07604, 1-(3-((4-(1-(4-((5-chloro-4-((2-(dimethylphosphoryl)phenyl)amino)pyrimidin-2-yl)amino)-3-methoxyphenyl)piperidin-4-yl)piperazin-1-yl)methyl)phenyl)dihydropyr imidine-2,4(1H,3H)-dione], the IC50 lay in the range of 10 to 50 nM in experiment [1]; 100 to 500 nM in experiment [2]; 100 to 500 nM in experiment [3]; 1 to 10 nM in [4] (setting [12]); 500 to 1000 nM in experiment [5]; 500 to 1000 nM in experiment [6].
Regarding `COc1cc(N2CCC(N(C)Cc3cncc(N4CCC(=O)NC4=O)c3)CC2)ccc1Nc1ncc(Cl)c(Nc2ccccc2P(C)(C)=O)n1` [GT-07695, 1-(5-(((1-(4-((5-chloro-4-((2-(dimethylphosphoryl)phenyl)amino)pyrimidin-2-yl)amino)-3-methoxyphenyl)piperidin-4-yl)(methyl)amino)methyl)pyridin-3-yl)dihydropyrimidine-2,4(1H,3H)-dione], the IC50 in experiment [1] fell in the range of 100 to 500 nM; in [2], 500 to 1000 nM; in [3], 100 to 500 nM; in [4] (setting [12]), 10 to 50 nM; in experiment [5] it was 100 to 500 nM; in [6], 500 to 1000 nM.
On to `COc1cc(N2CCC(N(C)Cc3cccc(N4CCC(=O)NC4=O)c3)CC2)ccc1Nc1ncc(Cl)c(Nc2ccccc2P(C)(C)=O)n1` [GT-07616, 1-(3-(((1-(4-((5-chloro-4-((2-(dimethylphosphoryl)phenyl)amino)pyrimidin-2-yl)amino)-3-methoxyphenyl)piperidin-4-yl)(methyl)amino)methyl)phenyl)dihydropyrimidine-2,4(1H,3H)-dione], for which the IC50 lay in the range of 10 to 50 nM in experiment [1]; 100 to 500 nM in experiment [2]; 100 to 500 nM in experiment [3]; 1 to 10 nM in experiment [4] (setting [12]); 500 to 1000 nM in experiment [5]; 500 to 1000 nM in [6].
A word on the inhibition: it is the relative decrease from the control value, in per cent. In the case of `CNC(=O)c1ccccc1Nc1cc(Nc2ccc(N3CCN(Cc4ccc(C5CCC(=O)NC5=O)cc4)CC3)cc2OC)ncc1C(F)(F)F` (centres unmarked) [GT-03715, 2-((2-((4-(4-(4-(2,6-dioxopiperidin-3-yl)benzyl)piperazin-1-yl)-2-methoxyphenyl)amino)-5-(trifluoromethyl)pyridin-4-yl)amino)-N-methylbenzamide], the IC50 in experiment [7] is 500 to 1000 nM; in [8], 100 to 500 nM; in [4] (SR, CCK-8, 72 hours, read-out: Inhibitory activity (IC50) on tumor cell proliferation, SR), 100 to 500 nM; in experiment [9], 500 to 1000 nM. For the same molecule, the inhibition at 0.5 µM in experiment [10] (at 0.5µM, read-out: Inhibition rate (%) at 0.5µM) was 10 to 20%. For the same molecule, in [10] (at 2 µM, read-out: Inhibition rate (%) at 2 µM), the inhibition at 2 µM was in the range of 60 to 80%. Besides, the “Degradation of substrate protein FAK (substrate protein remaining %)” value in experiment [11] was “A (A is defined as 0% ≤ substrate protein remaining % ≤ 80%)”.
For the molecule `COc1cc(N2CCC(N3CCN(Cc4ccc(N5CCC(=O)NC5=O)nc4)CC3)CC2)ccc1Nc1ncc(Cl)c(Nc2ccccc2P(C)(C)=O)n1` [GT-07607, 1-(5-((4-(1-(4-((5-chloro-4-((2-(dimethylphosphoryl)phenyl)amino)pyrimidin-2-yl)amino)-3-methoxyphenyl)piperidin-4-yl)piperazin-1-yl)methyl)pyridin-2-yl)dihydropyrimidine-2,4(1H,3H)-dione], the IC50 in experiment [1] was in the range of 10 to 50 nM; in experiment [2], 100 to 500 nM; in experiment [3] it was 100 to 500 nM; in [4] (setting [12]), 1 to 10 nM; in experiment [6], 100 to 500 nM.

For the origin of these results see EP4678638A1, “NEW E3 UBIQUITIN LIGASE LIGAND, PROTEIN DEGRADATION AGENT AND USE THEREOF” (priority 2023, dated 2024).
